Test results from ChEMBL document CHEMBL4476877, “Treatment of COPD, gastro-esophageal reflux disease (GERD), food allergies and other gastrointestinal conditions and disorders ameliorated by proper histamine management using a combination of histidine decarboxylase inhibitors, LRA drugs, anti-H1 and/or anti-H2 drugs” (2012).
Values joined by “and” are separate entries in the source; they are usually repeats but may differ in a detail not shown here. Equal values may be shown once. Active and inactive are the calls of the source.

What was measured:
[1] = molecular target: T1, Histidine decarboxylase (Homo sapiens) (UniProt P19113); experiment: Inhibition of recombinant human HDC (1 to 512 residues) expressed in Escherichia coli BL21 (DE3) pLysS assessed as reduction in [14C]CO2 production from L-[U-14C]histidine at 10 uM relative to untreated control
T1 sequence (whole entry): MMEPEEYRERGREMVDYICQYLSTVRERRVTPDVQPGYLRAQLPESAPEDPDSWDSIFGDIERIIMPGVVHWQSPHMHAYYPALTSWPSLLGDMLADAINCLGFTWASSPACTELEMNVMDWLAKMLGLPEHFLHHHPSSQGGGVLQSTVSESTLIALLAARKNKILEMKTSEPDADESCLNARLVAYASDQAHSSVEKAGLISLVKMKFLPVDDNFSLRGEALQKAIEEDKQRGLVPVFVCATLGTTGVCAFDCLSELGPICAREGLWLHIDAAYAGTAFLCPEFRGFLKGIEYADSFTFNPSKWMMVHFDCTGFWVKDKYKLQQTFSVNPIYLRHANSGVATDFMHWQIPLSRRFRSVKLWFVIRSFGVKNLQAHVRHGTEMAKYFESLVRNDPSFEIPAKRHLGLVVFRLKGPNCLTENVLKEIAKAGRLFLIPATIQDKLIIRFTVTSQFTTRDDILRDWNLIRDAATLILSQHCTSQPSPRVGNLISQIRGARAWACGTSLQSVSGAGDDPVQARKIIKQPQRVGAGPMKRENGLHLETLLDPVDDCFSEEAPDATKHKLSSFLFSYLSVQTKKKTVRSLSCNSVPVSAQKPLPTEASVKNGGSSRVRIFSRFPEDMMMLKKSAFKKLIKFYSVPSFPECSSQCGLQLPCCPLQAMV

Homo sapiens [2] = experiment: Improvement in disease symptoms in GERD patient assessed as reduction in regurgitation at 200 mg dosed daily; type: functional, organism-based
Homo sapiens [3] = experiment: Improvement in disease symptoms in GERD patient assessed as reduction in regurgitation at 200 mg dosed daily co-treated with 10 mg anti-H1 drug loratadine dosed daily and 150 mg anti-H2 drug Ranitidine dosed daily; type: functional, organism-based
Homo sapiens [4] = experiment: Improvement in disease symptoms in GERD patient assessed as reduction in heartburns at 200 mg dosed daily co-treated with 10 mg anti-H1 drug loratadine dosed daily and 150 mg anti-H2 drug Ranitidine dosed daily; type: functional, organism-based
Homo sapiens [5] = experiment: Improvement in disease symptoms in GERD patient assessed as improvement in global disease scores at 200 mg dosed daily co-treated with 10 mg anti-H1 drug loratadine dosed daily and 150 mg anti-H2 drug Ranitidine dosed daily; type: functional, organism-based
Homo sapiens [6] = experiment: Prevention of food allergy in patient with history of anaphylaxis due to allergens assessed as reduction in allergy symptoms to pea nut ingestion at 200 mg dosed daily for 8 months co-administered with 10 mg Montelukast dosed daily; type: functional, organism-based
Homo sapiens [7] = experiment: Improvement in disease symptoms in GERD patient assessed as reduction in cough at 200 mg dosed daily co-treated with 10 mg anti-H1 drug loratadine dosed daily; type: functional, organism-based
Homo sapiens [8] = experiment: Improvement in disease symptoms in GERD patient assessed as reduction in cough at 200 mg dosed daily; type: functional, organism-based
Homo sapiens [9] = experiment: Prevention of food allergy in pediatric patient with history of anaphylaxis due to nut allergy assessed as reduction in allergic symptoms at 200 mg dosed daily over 8 months co-administered with 10 mg Montelukast dosed daily; type: functional, organism-based
Homo sapiens [10] = experiment: Improvement in disease symptoms in GERD patient assessed as reduction in heartburns at 200 mg dosed daily co-treated with 10 mg anti-H1 drug loratadine dosed daily; type: functional, organism-based
Homo sapiens [11] = experiment: Prevention of food allergy in pediatric patient with history of anaphylaxis due to nut allergy assessed as reduction in allergic reactions at 200 mg dosed daily for 6 months co-administered with 10 mg Montelukast dosed daily; type: functional, organism-based
Homo sapiens [12] = experiment: Improvement in disease symptoms in GERD patient assessed as reduction in heartburns at 200 mg dosed daily; type: functional, organism-based
Homo sapiens [13] = experiment: Prevention of food allergy in pediatric patient with history of anaphylaxis due to nut allergy assessed as reduction in diarrhea at 200 mg dosed daily for 6 months co-administered with 10 mg Montelukast dosed daily; type: functional, organism-based
Homo sapiens [14] = experiment: Improvement in disease symptoms in GERD patient assessed as reduction in regurgitation at 200 mg dosed daily co-treated with 150 mg anti-H2 drug Ranitidine dosed daily; type: functional, organism-based
Homo sapiens [15] = experiment: Prevention of food allergy in patient with history of anaphylaxis due to allergens assessed as reduction in allergy symptoms at 200 mg dosed daily for 6 to 8 weeks co-administered with 10 mg Montelukast dosed daily; type: functional, organism-based
Homo sapiens [16] = experiment: Improvement in disease symptoms in GERD patient assessed as reduction in heartburns at 200 mg dosed daily co-treated with 150 mg anti-H2 drug Ranitidine dosed daily; type: functional, organism-based
Homo sapiens [17] = experiment: Prevention of food allergy in pediatric patient with history of anaphylaxis due to nut allergy assessed as reduction in stomach pain at 200 mg dosed daily for 6 months co-administered with 10 mg Montelukast dosed daily; type: functional, organism-based
Homo sapiens [18] = experiment: Prevention of food allergy in pediatric patient with history of anaphylaxis due to nut allergy assessed as reduction in constipation at 200 mg dosed daily for 6 months co-administered with 10 mg Montelukast dosed daily; type: functional, organism-based
Homo sapiens [19] = experiment: Improvement in disease symptoms in GERD patient assessed as reduction in cough at 200 mg dosed daily co-treated with 150 mg anti-H2 drug Ranitidine dosed daily; type: functional, organism-based
Homo sapiens [20] = experiment: Improvement in disease symptoms in GERD patient assessed as reduction in regurgitation at 200 mg dosed daily co-treated with 10 mg anti-H1 drug loratadine dosed daily; type: functional, organism-based
Homo sapiens [21] = experiment: Improvement in disease symptoms in GERD patient assessed as improvement in global disease scores at 200 mg dosed daily; type: functional, organism-based
Homo sapiens [22] = experiment: Improvement in disease symptoms in GERD patient assessed as reduction in cough at 200 mg dosed daily co-treated with 10 mg anti-H1 drug loratadine dosed daily and 150 mg anti-H2 drug Ranitidine dosed daily; type: functional, organism-based
Homo sapiens [23] = experiment: Prevention of food allergy in pediatric patient with history of anaphylaxis due to nut allergy assessed as reduction in digestive symptoms at 200 mg dosed daily over 8 months co-administered with 10 mg Montelukast dosed daily; type: functional, organism-based
Homo sapiens [24] = experiment: Prevention of food allergy in pediatric patient with history of anaphylaxis due to nut allergy assessed as reduction in allergic reactions at 200 mg dosed daily for 6 weeks co-administered with 10 mg Montelukast dosed daily; type: functional, organism-based
Homo sapiens [25] = experiment: Improvement in disease symptoms in GERD patient assessed as improvement in global disease scores at 200 mg dosed daily co-treated 150 mg anti-H2 drug Ranitidine dosed daily; type: functional, organism-based
Homo sapiens [26] = experiment: Improvement in disease symptoms in GERD patient assessed as improvement in global disease scores at 200 mg dosed daily co-treated with 10 mg anti-H1 drug loratadine dosed daily; type: functional, organism-based
Homo sapiens [27] = experiment: Prevention of food allergy in patient with history of anaphylaxis due to ingestion of shrimps assessed as reduction in allergy symptoms at 200 mg dosed daily for 6 weeks co-administered with 10 mg Montelukast dosed daily; type: functional, organism-based
Homo sapiens [28] = experiment: Improvement in disease symptoms in GERD patient assessed as improvement in global disease scores at 150 mg dosed daily; type: functional, organism-based
Homo sapiens [29] = experiment: Improvement in disease symptoms in GERD patient assessed as reduction in cough at 150 mg dosed daily; type: functional, organism-based
Homo sapiens [30] = experiment: Improvement in disease symptoms in GERD patient assessed as reduction in heartburns at 150 mg dosed daily; type: functional, organism-based
Homo sapiens [31] = experiment: Improvement in disease symptoms in GERD patient assessed as reduction in regurgitation at 150 mg dosed daily; type: functional, organism-based

CCOc1c(N)c2c(c(OCC)c1OCC)C(C1c3c(cc4c(c3OC)OCO4)CCN1C)OC2=O (racemic)
17.5%: inhibition [1]

CCOc1c(N)c2c(c(OCC)c1OCC)C(C1c3c(cc4c(c3OC)OCO4)CCN1C)OC2=O (configuration not stated)
inactive: Activity (Homo sapiens [2]) | Activity (Homo sapiens [8]) | Activity (Homo sapiens [12]) | Activity (Homo sapiens [21])
36.5% and 27.9%: inhibition [1]
active: Activity (Homo sapiens [3]) | Activity (Homo sapiens [4]) | Activity (Homo sapiens [5]) | Activity (Homo sapiens [6]) | Activity (Homo sapiens [7]) | Activity (Homo sapiens [9]) | Activity (Homo sapiens [10]) | Activity (Homo sapiens [11]) | Activity (Homo sapiens [13]) | Activity (Homo sapiens [14]) | Activity (Homo sapiens [15]) | Activity (Homo sapiens [16]) | Activity (Homo sapiens [17]) | Activity (Homo sapiens [18]) | Activity (Homo sapiens [19]) | Activity (Homo sapiens [20]) | Activity (Homo sapiens [22]) | Activity (Homo sapiens [23]) | Activity (Homo sapiens [24]) | Activity (Homo sapiens [25]) | Activity (Homo sapiens [26]) | Activity (Homo sapiens [27])

CNC(=C[N+](=O)[O-])NCCSCc1ccc(CN(C)C)o1
inactive: Activity (Homo sapiens [28]) | Activity (Homo sapiens [29]) | Activity (Homo sapiens [30]) | Activity (Homo sapiens [31])
